Test system: circulating lymphocytes
Assay: Lymphopenia assay: circulating lymphocytes after oral gavage
Assay type: in vivo
Conditions: C57bl/6 male mice, oral gavage 0.5 and 5 mg/kg in 30% HPCD, blood 5 and 24 hours after administration; for ED50: Mus musculus, Lymphocyte, po
Protocol: Measurement of circulating lymphocytes: Compounds were dissolved in 30% HPCD. Mice (C57bl/6 male, 6-10 week-old) were administered 0.5 and 5 mg/kg of a compound via oral gavage. 30% HPCD was included as a negative control.
Blood was collected from the retro-orbital sinus 5 and 24 hours after drug administration under short isoflurane anesthesia. Whole blood samples were subjected to hematology analysis. Peripheral lymphocyte counts were determined using an automated analyzer (HEMAVET™ 3700). Three mice were used to assess the lymphocyte depletion activity of each compound screened.
Compounds of formula (I) induced full lymphopenia at times as short as 3 hours or less to as long as 48 hours or more; for example, 4 to 36 hours, or 5 to 24 hours. In some cases, a compound of formula induced full lymphopenia at 5 hours and partial lymphopenia at 24 hours. The dosage required to induce lymphopenia can be in the range of, e.g., 0.001 mg/kg to 100 mg/kg; or 0.01 mg/kg to 10 mg/kg. The dosage can be 10 mg/kg or less, such as 5 mg/kg or less, 1 mg/kg or less, or 0.1 mg/kg or less

SMILES | Lymphopenia (ED50 mg/kg) [mg/kg] | ED50 [mg/kg]
C[C@](N)(CO)c1ccc2cc(O[C@H]3C[C@H](COCc4ccccc4)C3)ccc2c1 (relative stereo) [Example 76] | 0.5 to 5 | –
C[C@](N)(CO)c1ccc2cc(O[C@H]3C[C@@H](COCc4ccccc4)C3)ccc2c1 (relative stereo) [Example 77] | <0.5 | –
CCC(C)(C)[C@H]1CC[C@H](Oc2ccc3cc([C@@](C)(N)CO)ccc3c2)CC1 (relative stereo) [Example 78, (R)-2-Amino-2-[6-(4-trans-tert-pentylcyclohexyloxy)naphthalen-2-yl]propan-1-ol] | 0.5 to 5 | –
CCC(C)(C)[C@H]1CC[C@@H](Oc2ccc3cc([C@@](C)(N)CO)ccc3c2)CC1 (relative stereo) [Example 79, (R)-2-Amino-2-[6-(4-cis-tert-pentylcyclohexyloxy)naphthalen-2-yl]propan-1-ol] | >5 | –
C[C@](N)(CO)c1ccc2c(C(F)(F)F)c(O[C@H]3C[C@H](COCc4ccccc4)C3)ccc2c1 (relative stereo) [Example 82] | <0.5 | –
CC(C)(C)[C@H]1CC[C@H](Oc2ccc3cc([C@](C)(N)CO)ccc3c2C(F)(F)F)CC1 (relative stereo) [Example 124, (S)-2-amino-2-[6-(4-trans-tert-butyl-cyclohexyloxy)-5-trifluoromethyl-naphthalen-2-yl]-propan-1-ol] | >5 | –
CC(C)(C)[C@H]1CC[C@@H](Oc2ccc3cc([C@](C)(N)CO)ccc3c2C(F)(F)F)CC1 (relative stereo) [Example 128, (S)-2-amino-2-[6-(4-cis-tert-butyl-cyclohexyloxy)-5-trifluoromethyl-naphthalen-2-yl]-propan-1-ol] | 0.5 to 5 | –
CC(CO)c1ccc2c(C(F)(F)F)c(O[C@H]3CC[C@H](C(C)(C)C)CC3)ccc2c1 (relative stereo) [Example 275, 2-[6-(trans-4-tert-Butyl-cyclohexyloxy)-5-trifluoromethyl-naphthalen-2-yl]-propan-1-ol] | – | > 5
CC(N)(CO)c1ccc2c(C(F)(F)F)c(O[C@H]3CC[C@H](C(C)(C)C)CC3)ccc2c1 (relative stereo) [Example 276, 2-Amino-2-[6-(trans-4-tert-butyl-cyclohexyloxy)-5-trifluoromethyl-naphthalen-2-yl]-propan-1-ol] | – | < 0.5
CCCC[C@H]1CC[C@@H](Oc2ccc3cc([C@@](C)(N)CO)ccc3c2)CC1 [Example 6, (R)-2-amino-2-(6-(cis-4-butylcyclohexyloxy)naphthalen-2-yl)propan-1-ol] | – | 0.75
CCCCC1CCC(Oc2ccc3cc([C@@](C)(N)CO)ccc3c2)CC1 (stereo partly drawn) [Example 7, (R)-2-amino-2-(6-(4-butylcyclohexyloxy)naphthalen-2-yl)propan-1-ol] | – | < 0.5
CCCC[C@H]1CC[C@H](Oc2ccc3cc([C@@](C)(N)CO)ccc3c2)CC1 [Example 8, (R)-2-amino-2-(6-(trans-4-butylcyclohexyloxy)naphthalen-2-yl)propan-1-ol] | – | < 0.5
CCCC[C@H]1CC[C@@H](Oc2ccc3cc(C(N)(CO)CO)ccc3c2)CC1 [Example 14, 2-amino-2-(6-(cis-4-butylcyclohexyloxy)naphthalen-2-yl)propane-1,3-diol] | – | > 5
CCCC[C@H]1CC[C@@H](Oc2ccc3cc([C@@](C)(N)CO)ccc3c2C(F)(F)F)CC1 [Example 17, (R)-2-amino-2-(6-(cis-4-butylcyclohexyloxy)-5-(trifluoromethyl)naphthalen-2-yl)propan-1-ol] | – | 0.07
CC(C)(C)[C@H]1CC[C@H](Oc2ccc3cc([C@@](C)(N)CO)ccc3c2)CC1 [Example 25, (R)-2-amino-2-(6-(trans-4-tert-butylcyclohexyloxy)naphthalen-2-yl)propan-1-ol] | >5 | –
C[C@](N)(CO)c1ccc2cc(O[C@H]3CC[C@@H](c4ccccc4)CC3)ccc2c1 [Example 30, (R)-2-amino-2-(6-(cis-4-phenylcyclohexyloxy)naphthalen-2-yl)propan-1-ol] | – | 0.5 to 5
CC1(C)CCC(Oc2ccc3cc([C@@](C)(N)CO)ccc3c2)CC1 [Example 47, (R)-2-amino-2-(6-(4,4-dimethylcyclohexyloxy)naphthalen-2-yl)propan-1-ol] | – | > 5
CC(C)(C)[C@H]1CC[C@H](Oc2ccc3cc([C@@](C)(N)CO)ccc3c2)CC1 [Example 49, (R)-2-amino-2-(6-(trans-4-tert-butylcyclohexyloxy)naphthalen-2-yl)propan-1-ol] | 0.4 | –
Cl.NC(CO)(CO)c1ccc2cc(O[C@H]3C[C@H](COCc4ccccc4)C3)ccc2c1 [Example 65] | <0.5 | –

SMILES | Lymphopenia (ED50 mg/kg) [mg/kg] | ED50 [mg/kg]
Cl.NC(CO)(CO)c1ccc2cc(O[C@H]3C[C@@H](COCc4ccccc4)C3)ccc2c1 [Example 66] | <0.5 | –
NC(CO)(CO)c1ccc2c(C(F)(F)F)c(O[C@H]3C[C@H](COCc4ccccc4)C3)ccc2c1 [Example 73] | <0.5 | –
NC(CO)(CO)c1ccc2c(C(F)(F)F)c(O[C@H]3C[C@@H](COCc4ccccc4)C3)ccc2c1 [Example 74] | <0.5 | –
C[C@](N)(CO)c1ccc2cc(OC3CCC4CCCCC4C3)ccc2c1 (stereo partly drawn) [Example 87, (R)-2-Amino-2-[6-(decahydro-naphthalen-2-yloxy)-naphthalen-2-yl]-propan-1-ol] | – | 0.5 to 5
C[C@](N)(CO)c1ccc2cc(OC3CCC(C4CCCCC4)CC3)ccc2c1 (stereo partly drawn) [Example 89, (R)-2-Amino-2-[6-(bicyclohexyl-4-yloxy)-naphthalen-2-yl]-propan-1-ol] | – | 0.5 to 5
CC(C)C1CCC(Oc2ccc3cc([C@@](C)(N)CO)ccc3c2)CC1 (stereo partly drawn) [Example 91, (R)-2-Amino-2-[6-(4-isopropyl-cyclohexyloxy)-naphthalen-2-yl]-propan-1-ol] | – | 0.5 to 5
C[C@](N)(CO)c1ccc2cc(OC3CCC(C4CCCC4)CC3)ccc2c1 (stereo partly drawn) [Example 94, (R)-2-Amino-2-[6-(4-cyclopentyl-cyclohexyloxy)-naphthalen-2-yl]-propan-1-ol] | – | 0.5 to 5
CCC(C)C1CCC(Oc2ccc3cc([C@@](C)(N)CO)ccc3c2)CC1 (stereo partly drawn) [Example 97, (R)-2-Amino-2-[6-(4-sec-butyl-cyclohexyloxy)-naphthalen-2-yl]-propan-1-ol] | – | 0.5 to 5
C[C@](N)(CO)c1ccc2c(C(F)(F)F)c(O[C@H]3CC[C@@H](C4CCCC4)CC3)ccc2c1 [Example 100, (R)-2-Amino-2-[6-(cis-4-cyclopentyl-cyclohexyloxy)-5-trifluoromethyl-naphthalen-2-yl]-propan-1-ol] | – | > 5
C[C@](N)(CO)c1ccc2c(C(F)(F)F)c(O[C@H]3CC[C@H](C4CCCC4)CC3)ccc2c1 [Example 103, (R)-2-Amino-2-[6-(trans-4-cyclopentyl-cyclohexyloxy)-5-trifluoromethyl-naphthalen-2-yl]-propan-1-ol] | – | > 5
CN[C@@](C)(CO)c1ccc2cc(OC3CCC(C(C)(C)C)CC3)ccc2c1 (stereo partly drawn) [Example 112, (R)-2-[6-(4-tert-butyl-cyclohexyloxy)-naphthalen-2-yl]-2-methylamino-propan-1-ol] | – | 0.5 to 5
C[C@@]1(c2ccc3c(C(F)(F)F)c(O)ccc3c2)COC(=O)N1 [Example 130, (R)-4-(6-hydroxy-5-(trifluoromethyl)naphthalen-2-yl)-4-methyloxazolidin-2-one] | – | > 5
CC(C)(C)[C@H]1CC[C@H](Oc2ccc3cc([C@]4(C)COC(=O)N4)ccc3c2C(F)(F)F)CC1 [Example 131, (R)-4-(6-(trans-4-tert-butylcyclohexyloxy)-5-(trifluoromethyl)naphthalen-2-yl)-4-methyloxazolidin-2-one] | – | < 0.5
C[C@](N)(CO)c1ccc2cc(OC3CCC4(CCCCC4)CC3)ccc2c1 [Example 133, (2R)-2-amino-2-(6-(spiro[5.5]undecan-3-yloxy)naphthalen-2-yl)propan-1-ol] | – | 0.5 to 5
C[C@](N)(CO)c1ccc2c(C(F)(F)F)c(OC3CCC4(CCCCC4)CC3)ccc2c1 [Example 139, (2R)-2-amino-2-(6-(spiro[5.5]undecan-3-yloxy)-5-(trifluoromethyl)naphthalen-2-yl)propan-1-ol] | – | < 0.5
CC(C)(C)C1CCC(Cc2ccc3cc([C@@](C)(N)CO)ccc3c2)CC1 (stereo partly drawn) [Example 146, (R)-2-amino-2-(6-((4-tert-butylcyclohexyl)methyl)naphthalen-2-yl)propan-1-ol] | – | 0.5 to 5
CC(C)(C)[C@H]1CC[C@H](Oc2ccc3cc(C4(N)COC4)ccc3c2)CC1 [Example 151, 3-(6-(trans-4-tert-Butylcyclohexyloxy)naphthalen-2-yl)oxetan-3-amine] | – | 0.5 to 5
CC(C)(C)[C@H]1CC[C@H](Oc2ccc3cc(C4(N)COC4)ccc3c2C(F)(F)F)CC1 [Example 153, 3-(6-(trans-4-tert-butylcyclohexyloxy)-5-(trifluoromethyl)naphthalen-2-yl)oxetan-3-amine] | – | < 0.5
C[C@](N)(CO)c1ccc2c(C(F)(F)F)c(O[C@H]3CC[C@@H](C4CCCCC4)CC3)ccc2c1 [Example 160, (R)-2-Amino-2-(6-(cis-4-cyclohexylcyclohexyloxy)-5-(trifluoromethyl)naphthalen-2-yl)propan-1-ol] | – | > 5

Source: patent publication US8269043B2, “Bicyclic aryl sphingosine 1-phosphate analogs” (Biogen Idec MA Inc., priority 2008, dated 2012)
